In patent US20230398130A1, “METHODS AND COMPOSITIONS FOR DIFFERENTIATING STEM CELLS” (Massachusetts Institute of Technology, priority 2020, published 2023):

Columns and labels:
ISC-enriched organoids [1] = assay: Primary screen, 384-well 2.5-D organoid differentiation (ENR+CD, 6 days): basal lysozyme secretion (LYZ.NS); type: cell-based, murine; details: for Dose.FC.LYZ.NS: FC vs plate median; for SSMD.LYZ.NS: strictly standardized mean difference
Source text: (§1) High-throughput screening.

ISC-enriched organoids [2] = assay: Primary screen, 384-well 2.5-D organoid differentiation (ENR+CD, 6 days): carbachol-induced lysozyme secretion (LYZ.S); type: cell-based, murine; details: primary screen; for Dose.FC.LYZ.S: FC vs plate median; for Z.LYZ.S: standard z score; for SSMD.LYZ.S: strictly standardized mean difference
Source text: as §1

ISC-enriched organoids [3] = assay: Primary screen, 384-well 2.5-D organoid differentiation (ENR+CD, 6 days, Target Selective Inhibitor Library, vs whole-plate median): ATP (CellTiter-Glo 3D, CTG); details: for Dose.FC.CTG: FC vs plate median; for SSMD.CTG: strictly standardized mean difference
[4] = Dose 0.08 uM, primary screen, standard z score
[5] = Dose 0.40 uM, primary screen, standard z score
[6] = Dose 2.00 uM, primary screen, standard z score
[7] = Dose 10.00 uM, primary screen, standard z score
[8] = primary screen, 1st of the 4 dose lines of the treatment (dose not given)
[9] = primary screen, 2nd of the 4 dose lines of the treatment (dose not given)
[10] = primary screen, 3rd of the 4 dose lines of the treatment (dose not given)
[11] = primary screen, 4th of the 4 dose lines of the treatment (dose not given)
[12] = 1st of the 4 dose lines of the treatment (dose not given)
[13] = 2nd of the 4 dose lines of the treatment (dose not given)
[14] = 3rd of the 4 dose lines of the treatment (dose not given)
[15] = 4th of the 4 dose lines of the treatment (dose not given)
[16] = Dose 0.08 uM, standard z score of FC
[17] = Dose 0.40 uM, standard z score of FC
[18] = Dose 2.00 uM, standard z score of FC
[19] = Dose 10.00 uM, standard z score of FC

| Compound | Dose.FC.LYZ.NS (ISC-enriched organoids [1]; Dose 0.08 uM, primary screen) | Dose.FC.LYZ.NS (ISC-enriched organoids [1]; Dose 0.40 uM, primary screen) | Dose.FC.LYZ.NS (ISC-enriched organoids [1]; Dose 2.00 uM, primary screen) | Dose.FC.LYZ.NS (ISC-enriched organoids [1]; Dose 10.00 uM, primary screen) | SSMD.LYZ.NS (ISC-enriched organoids [1]; [8]) | SSMD.LYZ.NS (ISC-enriched organoids [1]; [9]) | SSMD.LYZ.NS (ISC-enriched organoids [1]; [10]) | SSMD.LYZ.NS (ISC-enriched organoids [1]; [11]) | Dose.FC.LYZ.S (ISC-enriched organoids [2]; Dose 0.08 uM) | Dose.FC.LYZ.S (ISC-enriched organoids [2]; Dose 0.40 uM) | Dose.FC.LYZ.S (ISC-enriched organoids [2]; Dose 2.00 uM) | Dose.FC.LYZ.S (ISC-enriched organoids [2]; Dose 10.00 uM) | Z.LYZ.S (ISC-enriched organoids [2]; [12]) | Z.LYZ.S (ISC-enriched organoids [2]; [13]) | Z.LYZ.S (ISC-enriched organoids [2]; [14]) | Z.LYZ.S (ISC-enriched organoids [2]; [15]) | SSMD.LYZ.S (ISC-enriched organoids [2]; [12]) | SSMD.LYZ.S (ISC-enriched organoids [2]; [13]) | SSMD.LYZ.S (ISC-enriched organoids [2]; [14]) | SSMD.LYZ.S (ISC-enriched organoids [2]; [15]) | also measured |
| --- | --- | --- | --- | --- | --- | --- | --- | --- | --- | --- | --- | --- | --- | --- | --- | --- | --- | --- | --- | --- | --- |
| CNC(=O)[C@H](Cc1c[nH]c2ccccc12)NC(=O)[C@@H](CC(=O)NO)CC(C)C [Ilomastat (GM6001, Galardin)] | 0.055 log 2 fold change | −0.011 log 2 fold change | 0.007 log 2 fold change | −0.106 log 2 fold change | 0.305 | −0.056 | 0.066 | −0.635 | 0.214 log 2 fold change | 0.117 log 2 fold change | 0.024 log 2 fold change | −0.078 log 2 fold change | 1.385 | 0.754 | 0.153 | −0.502 | 1.175 | 0.580 | 0.164 | −0.329 | Z.LYZ.NS (ISC-enriched organoids [1]; [4]): 0.482; Z.LYZ.NS (ISC-enriched organoids [1]; [5]): −0.092; Z.LYZ.NS (ISC-enriched organoids [1]; [6]): 0.064; Z.LYZ.NS (ISC-enriched organoids [1]; [7]): −0.919; Dose.FC.CTG (ISC-enriched organoids [3]; Dose 0.08 uM, primary screen): 0.197 log 2 fold change; Z.CTG (ISC-enriched organoids [3]; [4]): 0.470; Dose.FC.CTG (ISC-enriched organoids [3]; Dose 0.40 uM, primary screen): 0.163 log 2 fold change; Z.CTG (ISC-enriched organoids [3]; [5]): 0.389; Dose.FC.CTG (ISC-enriched organoids [3]; Dose 2.00 uM, primary screen): 0.091 log 2 fold change; Z.CTG (ISC-enriched organoids [3]; [6]): 0.216; Dose.FC.CTG (ISC-enriched organoids [3]; Dose 10.00 uM, primary screen): −0.110 log 2 fold change; Z.CTG (ISC-enriched organoids [3]; [7]): −0.264; SSMD.CTG (ISC-enriched organoids [3]; [8]): 0.482; SSMD.CTG (ISC-enriched organoids [3]; [9]): 0.406; SSMD.CTG (ISC-enriched organoids [3]; [10]): 0.321; SSMD.CTG (ISC-enriched organoids [3]; [11]): −0.348 |
| CC[C@H](C)C(=O)O[C@H]1C[C@@H](C)C=C2C=C[C@H](C)[C@H](CC[C@@H]3C[C@@H](O)CC(=O)O3)[C@H]21 [Lovastatin] |  |  |  |  | 0.014 | −0.516 | −1.430 | −1.590 |  |  |  |  | −0.147 | −0.320 | −2.572 | −2.645 | −0.128 | −0.236 | −1.424 | −1.288 | Z.CTG (ISC-enriched organoids [3]; [4]): −0.769; Z.CTG (ISC-enriched organoids [3]; [5]): −1.174; Z.CTG (ISC-enriched organoids [3]; [6]): −2.803; Z.CTG (ISC-enriched organoids [3]; [7]): −3.322; SSMD.CTG (ISC-enriched organoids [3]; [8]): −0.609; SSMD.CTG (ISC-enriched organoids [3]; [9]): −1.511; SSMD.CTG (ISC-enriched organoids [3]; [10]): −2.978; SSMD.CTG (ISC-enriched organoids [3]; [11]): −1.911 |
| CC[C@@H]1/C=C/C=C/C[C@H](C)[C@H](O)[C@](C)(O)C(=O)[C@H](C)[C@@H](O)[C@H](C)C(=O)[C@H](C)[C@@H](O)[C@H](C)/C=C/C(=O)O[C@H]2[C@@H](C)[C@@H](CC1)O[C@@]1(CC[C@@H](C)[C@@H](C[C@H](C)O)O1)[C@@H]2C [Oligomycin A] | −0.204 log 2 fold change | −0.231 log 2 fold change | −0.213 log 2 fold change | −0.223 log 2 fold change |  |  |  |  | −0.243 log 2 fold change | −0.274 log 2 fold change | −0.269 log 2 fold change | −0.288 log 2 fold change |  |  |  |  |  |  |  |  | Z.LYZ.NS (ISC-enriched organoids [1]; [16]): −1.778; Z.LYZ.NS (ISC-enriched organoids [1]; [17]): −2.013; Z.LYZ.NS (ISC-enriched organoids [1]; [18]): −1.857; Z.LYZ.NS (ISC-enriched organoids [1]; [19]): −1.943; Dose.FC.CTG (ISC-enriched organoids [3]; Dose 0.08 uM, primary screen): −0.662 log 2 fold change; Z.CTG (ISC-enriched organoids [3]; [16]): −1.581; Dose.FC.CTG (ISC-enriched organoids [3]; Dose 0.40 uM, primary screen): −0.706 log 2 fold change; Z.CTG (ISC-enriched organoids [3]; [17]): −1.685; Dose.FC.CTG (ISC-enriched organoids [3]; Dose 2.00 uM, primary screen): −0.946 log 2 fold change; Z.CTG (ISC-enriched organoids [3]; [18]): −2.261; Dose.FC.CTG (ISC-enriched organoids [3]; Dose 10.00 uM, primary screen): −1.244 log 2 fold change; Z.CTG (ISC-enriched organoids [3]; [19]): −2.972 |
| O=C(Nc1ccccc1)c1cc([N+](=O)[O-])ccc1Cl [GW9662] | 0.035 log 2 fold change | 0.098 log 2 fold change | 0.046 log 2 fold change | 0.030 log 2 fold change | 0.272 | 0.722 | 0.336 | 0.282 | 0.036 log 2 fold change | 0.080 log 2 fold change | 0.093 log 2 fold change | 0.020 log 2 fold change | 0.235 | 0.520 | 0.599 | 0.131 | 0.218 | 0.534 | 0.571 | 0.149 | Z.LYZ.NS (ISC-enriched organoids [1]; [4]): 0.305; Z.LYZ.NS (ISC-enriched organoids [1]; [5]): 0.852; Z.LYZ.NS (ISC-enriched organoids [1]; [6]): 0.400; Z.LYZ.NS (ISC-enriched organoids [1]; [7]): 0.264; Dose.FC.CTG (ISC-enriched organoids [3]; Dose 0.08 uM, primary screen): 0.115 log 2 fold change; Z.CTG (ISC-enriched organoids [3]; [4]): 0.274; Dose.FC.CTG (ISC-enriched organoids [3]; Dose 0.40 uM, primary screen): 0.041 log 2 fold change; Z.CTG (ISC-enriched organoids [3]; [5]): 0.098; Dose.FC.CTG (ISC-enriched organoids [3]; Dose 2.00 uM, primary screen): 0.212 log 2 fold change; Z.CTG (ISC-enriched organoids [3]; [6]): 0.508; Dose.FC.CTG (ISC-enriched organoids [3]; Dose 10.00 uM, primary screen): 0.133 log 2 fold change; Z.CTG (ISC-enriched organoids [3]; [7]): 0.318; SSMD.CTG (ISC-enriched organoids [3]; [8]): 0.301; SSMD.CTG (ISC-enriched organoids [3]; [9]): 0.117; SSMD.CTG (ISC-enriched organoids [3]; [10]): 0.715; SSMD.CTG (ISC-enriched organoids [3]; [11]): 0.378 |
